Entries after “also recorded” stand apart in the source; their conditions may differ. Read-outs that look alike come from different tables or passages of the source.

Usually IC50 stands for the concentration that gives 50% inhibition.

The subject of experiment [1] is MDA-MB-231 human breast cancer cells. Put plainly: Transfilter cell invasion assay (Matrigel-coated Boyden chambers). The format is cell-based. As for the experimental part: The chamber filters were coated with 50 μg/ml of Matrigel matrix, incubated overnight at room temperature under a laminar flow hood and stored at 4° C.
On the day of the experiment, the coated inserts were rehydrated with 0.5 ml serum-free DMEM containing 0.1% bovine serum albumin for 1-2 hours. To study the effects of LFM and LFM-A12 on invasiveness of MDA-MB-231 cells, exponentially growing cells were incubated with each compound at various concentrations ranging from 12.5 RM to 100 μM in 0.1% DMSO overnight. The cells were trypsinized, washed twice with serum-free DMEM containing BSA, counted and resuspended at 1×10^5 cells/ml.
A 0.5 ml cell suspension containing 5×10^4 cells in a serum-free DMEM containing LFM, LFM-A12, or vehicle was added to the Matrigel-coated and rehydrated filter inserts. Next, 750 μl of NIH fibroblast conditioned medium was placed as a chemoattractant in 24-well plates and the inserts were placed in wells and incubated at 37° C. for 48 hours. […] The invasive cells that migrated to the lower side of the filter were fixed, stained with Hema-3 solutions and counted under microscope. No cells were detected at the bottom of the Boyden chambers. Therefore, the number of cells on the lower side of the filters accounted for all cells that had migrated through the filter. Five (5) to ten (10) random fields per filter were counted to determine the mean (±SE) values for the invasive fraction. The invasive fractions of cells treated with LFM or LFM-A12 were compared to those of vehicle (0.1% DMSO in PBS) treated control cells and the percent inhibition of invasiveness was determined using the following formula: % Inhibition=100×(1-Invasive Fraction of Drug-Treated Cells/Invasive Fraction of Control Cells).

A further experiment has as its system MDA-MB-231 cells. Put plainly: Confocal laser scanning microscopy of treated cells. The format is cell-based, human. Conditions: MDA-MB-231, 100 μM, 24 hours, α-tubulin / TOTO-3 staining. As for the experimental part: Immunofluorescence was used to examine the morphologic features of breast cancer cells treated with LFM and its analogs. Before the experiment, cells were trypsinized from rapidly growing tissue culture flasks and seeded onto sterile 22 mm^2 coverslips in 6-well culture plates. Cells on coverslips were returned to the incubator for 24 hours prior to treatment. The following day, drugs were added from a stock solution made in DMSO to a final concentration of 100 μM. Final DMSO concentration was 0.1% in both test samples and controls. Cells were returned to a 37° C. incubator for 24 hours before further processing.
At 24 hours, coverslips were fixed in −20° C. methanol for 15 minutes followed by a 15 minute incubation in phosphate buffered saline +0.1% Triton X-100(PBS-Tx). Coverslips were next incubated with a monoclonal antibody against α-tubulin (Sigma Chemical Co, St. Louis, Mo.) at a dilution of 1:1000 for 40 minutes in a humidified chamber at 37° C. Coverslips were washed for 15 minutes in PBS-Tx followed by a 40 min incubation with a goat anti-mouse IgG antibody conjugated to FITC (Amersham Corp., Arlington Heights, Ill.). The coverslips were again rinsed in PBS-Tx and incubated with 5 μM TOTO-3 (Molecular Probes, Eugene Oreg.) for 20 minutes to label the nuclear DNA. […]

Where [2] appears, read: MDA-MB-231, migration for 48 hours, mean of two experiments, read-out: IC50 for inhibition of invasion through Matrigel matrix.

In the case of `CC(O)=C(C#N)C(=O)Nc1ccc(C(F)(F)F)cc1` [LFM, α-Cyano-β-hydroxy-β-methyl-N-[4-(trifluoromethyl)phenyl]-propenamide, reference compound], the IC50 is 97 µM in experiment [1] (setting [2]) and 97 µM in experiment [1] (MDA-MB-231, read-out: IC50 for inhibition of invasion through Matrigel matrix).

For the molecule `C/C(O)=C(\C#N)C(=O)Nc1ccc(OC(F)(F)F)cc1` [LFM-A12, α-Cyano-β-hydroxy-β-methyl-N-[4-(trifluoromethoxy)phenyl]-propenamide], the IC50 in experiment [1] (setting [2]) was determined as 28.4 µM. For the same molecule, the “morphology and microtubular organization of treated cells” value in the experiment with MDA-MB-231 cells is “much smaller and had an abnormal shape with large cytoplasmic vacuoles; also recorded: marked shrinkage with disruption of microtubules”.
